Experimental data from patent US8686113B2 (priority 2009, dated 2014).
Values after ≈ are worked out from the molar mass of the structure shown. Where two headings read alike, the source gives them in different places. Non-standard residues stand in square brackets, D forms with d. Residues, ends and D or L forms follow the SMILES beside them. No end group written: not given here. *: point of attachment. Hyp = O=C(O)[C@@H]1C[C@@H](O)CN1; Orn = NCCC[C@H](N)C(=O)O; NHPr = CCCN*

Columns and labels:
[1] = system: S. typhimurium s5 (J. Weiser); settings: ¼ Muller-Hinton medium
Description: (§1) The minimum inhibitory concentrations (MIC) of the antimicrobial peptides and peptide derivatives were determined in microdilution assays. These used a continuous peptide dilution in sterile flat-bottomed 96-well microtiter plates (polystyrene, Greiner Bio-One GmbH, Frickenhausen, Germany) and a total volume of 100 μL per well. The aqueous peptide or peptidomimetic solutions were diluted with 1% TSB water, to obtain a final concentration of 256 μg/mL. 50 μL of the peptide or peptidomimetic solution was pipetted into the first well of each series and stirred. From this solution, 50 μL was transferred to the second well, stirred and again 50 μL was transferred to the next well, and so on. A double dilution series is obtained, beginning at 256 μg/mL in the first well to 125 ng/mL in the twelfth well. The bacteria, e.g. E. coli BL21 A1, were cultured overnight at 37° C. in nutrient broth (NB, Carl Roth GmbH+Co. KG, Karlsruhe, Germany). 50 μL of a 5×10^6 bacteria/mL suspension in 1% TSB was added to each well of the microtiter plate and thus a final concentration of the peptides or peptidomimetics from 128 μg/mL (well 1) to 62.5 ng/mL (well 12) was established in each series. The plates were incubated at 37° C. for 20 h and then the absorption was measured at 595 nm with a TECAN microtiter plate spectrophotometer (Tecan Trading AG, Mannedorf, Switzerland). The MIC values of all peptides and peptidomimetics were determined in triplicate. Sterile water was used as negative control.
(§2) The tests were in this case carried out in Mueller-Hinton medium (¼ concentrated), which is equivalent to 1% TSB.

E. coli 045-849 SENTRY = system: E. coli 045-849 SENTRY
Description: as §1, §2

[2] = system: P. aeruginosa 10 J. Wilson
Description: as §1, §2

[3] = system: S. typhimurium ATCC 700408
Description: as §1, §2

K. pneumoniae ATCC 27799 = settings: ATCC 27799
Description: as §1, §2

P. vulgaris ATCC 6896 = system: P. vulgaris ATCC 6896
Description: as §1, §2

E. coli D31 J. Wilson = settings: ¼ Muller-Hinton medium
Description: as §1, §2

P. mirabilis ATCC 7002 = system: P. mirabilis ATCC 7002
Description: as §1, §2

E. coli ATCC BAA-457 = settings: ¼ Muller-Hinton medium
Description: as §1, §2

K. pneumoniae 012-3131 = system: K. pneumoniae 012-3131
Description: as §1, §2

[4] = system: S. typhimurium ATCC 14028
Description: as §1, §2

[5] = system: K. pneumoniae K6 ATCC 700603; settings: ATCC 700603
Description: as §1, §2

E. coli BL21 A1 = format: cell-based, Escherichia coli; settings: BL21, 20 h
Method in brief: (§3)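 Broth microdilution in 1% TSB with twofold peptide series, final 128 μg/mL to 62.5 ng/mL, against 5×10^6 bacteria/mL stock suspension added 1:1. Incubated 20 h at 37 °C, growth read by absorbance at 595 nm; MIC is the lowest concentration with no growth, determined in triplicate.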

M. luteus 10240 = assay: Growth inhibition assay (microdilution MIC); format: cell-based, Micrococcus luteus; settings: 10240, 20 h
Method in brief: as §3

[6] = 25% aqueous mouse serum, 37° C., 75 μg/mL peptide
[7] = mouse, serum
Description: For this, the peptides and peptidomimetics were dissolved in water, mouse serum was added and the peptide concentration was adjusted to 75 μg/mL. While shaking continuously, the mixture was incubated at 37° C. After 0, 30, 60, 120, 240 and 360 minutes, in each case an aliquot was taken and mixed with 15% aqueous trichloroacetic acid (Carl Roth GmbH & Co. KG; Karlsruhe, Germany). After incubation on ice for a further 10 minutes, the precipitated serum proteins were centrifuged off (5 min, 13400 rpm, MiniSpin, Eppendorf AG, Hamburg, Germany). The supernatant was removed, neutralized with 1 mol/L aqueous sodium hydroxide solution (Fluke Chemie GmbH, Buchs, Switzerland) and stored at −20° C. until analysis.
The supernatants were analyzed by RP-HPLC with a linear acetonitrile gradient (Biosolve BV, Valkenswaard, The Netherlands) in the presence of 0.1% trifluoroacetic acid (TFA, UV-grade, Fluka Chemie GmbH, Buchs, Switzerland) as ion-pairing reagent. The fractions were co-crystallized with α-cyanohydroxycinnamic acid (Bruker Daltonik GmbH; Bremen, Germany) as matrix (5.3 mg/mL in 50% acetonitrile in 0.1% aqueous TFA) and were analyzed with a tandem mass spectrometer (MALDI-TOF/TOF-MS, 4700 Proteomics Analyzer; Applied Biosystems GmbH, Weiterstadt, Germany) in the positive-ion reflector mode. The proportion of intact peptides and their degradation products or metabolites could thus be identified and quantified at the individual time points. The control used was 25% aqueous mouse serum, which was analyzed in parallel for the same time intervals.

[8] = system: Klebsiella pneumoniae DSM 681
Description: as §1
(§4) The peptides shown in Table 8 were investigated for their MIC against pathogenic bacteria such as E. coli DSM 10233, K. pneumoniae DSM 681 and P. aeruginosa DSM 3227.

[9] = system: Escherichia coli DSM 10233
Description: as §1, §4

[10] = system: Pseudomonas aeruginosa DSM 3227
Description: as §1, §4
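For Half-life in 25% mouse serum in this document: intact peptide left at successive time points measured by reversed-phase HPLC with an acetonitrile gradient in the supernatant after precipitation of serum proteins.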

Compound	MIC K. pneumoniae ATCC 27799 (K. pneumoniae ATCC 27799)	MIC E. coli D31 J. Wilson (E. coli D31 J. Wilson)	MIC E. coli SEQ 102ATCC # BAA-4 57 (E. coli ATCC BAA-457)	MIC K. pneumoniae 012-3131 (K. pneumoniae 012-3131)	MIC K. pneumoniae K6 ATCC 700603 [5]	MIC E. coli BL21 A1 (E. coli BL21 A1)	MIC M. luteus 10240 (M. luteus 10240)	Half-life in 25% mouse serum [6]	MIC K. pneumoniae DSM 681 [8]	MIC E. coli DSM 10233 [9]	further results
H-VDKPPYLPRPRPPRRIYNNR-NH2 [compound 15]	64 µg/mL	16 µg/mL	32 µg/mL	16 µg/mL	32 µg/mL	8 µg/mL	8 µg/mL				MIC S. typhimurium s5 (J. Weiser) [1]: 8 µg/mL; MIC E. coli 045-849 SENTRY (E. coli 045-849 SENTRY; 045-849 SENTRY): 4 µg/mL; MIC P. aeruginosa 10 J. Wilson [2]: 16 µg/mL; MIC S. typhimurium ATCC 700408 [3]: 0.5 µg/mL; MIC P. vulgaris ATCC 6896 (P. vulgaris ATCC 6896; ¼ Muller-Hinton medium): >; MIC P. mirabilis ATCC 7002 (P. mirabilis ATCC 7002; ¼ Muller-Hinton medium): >; MIC S. typhimurium ATCC 14028 [4]: 4 µg/mL
CC[C@H](C)[C@H](NC(=O)[C@H](CCCN)NC(=O)[C@H](CCCNC(=N)N)NC(=O)[C@@H]1CCCN1C(=O)[C@@H]1CCCN1C(=O)[C@H](CCCNC(=N)N)NC(=O)[C@@H]1CCCN1C(=O)[C@H](CCCNC(=N)N)NC(=O)[C@@H]1CCCN1C(=O)[C@H](CC(C)C)NC(=O)[C@H](Cc1ccc(O)cc1)NC(=O)[C@@H]1CCCN1C(=O)[C@@H]1CCCN1C(=O)[C@H](CCCCN)NC(=O)[C@H](CC(=O)O)NC(=O)[C@@H](N)C(C)C)C(=O)N[C@@H](Cc1ccc(O)cc1)C(=O)N[C@@H](CC(N)=O)C(=O)N[C@@H](CCCNC(=N)N)C(N)=O [compound 61] (H-VDKPPYLPRPRPPR[Orn]IYNR-NH2)						8 µg/mL (≈ 3.41 µM)	16 µg/mL (≈ 6.81 µM)	1.5 h			half-life [7]: 1.08 h
CCCNC(=O)[C@H](CCCNC(=N)N)NC(=O)[C@H](CC(N)=O)NC(=O)[C@H](Cc1ccc(O)cc1)NC(=O)[C@@H](NC(=O)[C@H](CCCNC(=N)N)NC(=O)[C@H](CCCNC(=N)N)NC(=O)[C@@H]1CCCN1C(=O)[C@@H]1CCCN1C(=O)[C@H](CCCNC(=N)N)NC(=O)[C@@H]1CCCN1C(=O)[C@H](CCCNC(=N)N)NC(=O)[C@@H]1CCCN1C(=O)[C@H](CC(C)C)NC(=O)[C@H](Cc1ccc(O)cc1)NC(=O)[C@@H]1CCCN1C(=O)[C@@H]1CCCN1C(=O)[C@H](CCCCN)NC(=O)[C@H](CC(=O)O)NC(=O)[C@@H](N)C(C)C)[C@@H](C)CC [compound 58] (H-VDKPPYLPRPRPPRRIYNR-NHPr)						4 µg/mL (≈ 1.64 µM)	8 µg/mL (≈ 3.29 µM)	>2 h			half-life [7]: 1 h
CC[C@H](C)[C@H](NC(=O)[C@@H](CCCNC(=N)N)NC(=O)[C@H](CCCNC(=N)N)NC(=O)[C@@H]1CCCN1C(=O)[C@@H]1CCCN1C(=O)[C@H](CCCNC(=N)N)NC(=O)[C@@H]1CCCN1C(=O)[C@H](CCCNC(=N)N)NC(=O)[C@@H]1CCCN1C(=O)[C@H](CC(C)C)NC(=O)[C@H](Cc1ccc(O)cc1)NC(=O)[C@@H]1CCCN1C(=O)[C@@H]1CCCN1C(=O)[C@H](CCCCN)NC(=O)[C@H](CC(=O)O)NC(=O)[C@@H](N)C(C)C)C(=O)N[C@@H](Cc1ccc(O)cc1)C(=O)N[C@@H](CC(N)=O)C(=O)N[C@@H](CCCNC(=N)N)C(N)=O [compound 111] (H-VDKPPYLPRPRPPR[dR]IYNR-NH2)						4 µg/mL (≈ 1.67 µM)	4 µg/mL (≈ 1.67 µM)		4 µg/mL (≈ 1.67 µM)	4 µg/mL (≈ 1.67 µM)	
CC[C@@H](C)[C@@H](NC(=O)[C@@H](Cc1ccc(O)cc1)NC(=O)[C@@H](CC(N)=O)NC(=O)[C@H](N)CCCNC(=N)N)C(=O)N[C@H](CCCNC(=N)N)C(=O)N[C@H](CCCNC(=N)N)C(=O)N1CCC[C@@H]1C(=O)N1CCC[C@@H]1C(=O)N[C@H](CCCNC(=N)N)C(=O)N1CCC[C@@H]1C(=O)N[C@H](CCCNC(=N)N)C(=O)N1CCC[C@@H]1C(=O)N[C@H](CC(C)C)C(=O)N[C@H](Cc1ccc(O)cc1)C(=O)N1CCC[C@@H]1C(=O)N1CCC[C@@H]1C(=O)N[C@H](CCCCN)C(=O)N[C@H](CC(=O)O)C(=O)N[C@@H](C(N)=O)C(C)C [compound 117] (H-[dR][dN][dY][dI][dR][dR][dP][dP][dR][dP][dR][dP][dL][dY][dP][dP][dK][dD][dV]-NH2)						64 µg/mL (≈ 26.8 µM)	32 µg/mL (≈ 13.4 µM)		>32 µg/mL	>32 µg/mL	
CC[C@H](C)[C@H](NC(=O)[C@H](CCCNC(=N)N)NC(=O)[C@H](CCCNC(=N)N)NC(=O)[C@@H]1CCCN1C(=O)[C@@H]1CCCN1C(=O)[C@H](CCCNC(=N)N)NC(=O)[C@@H]1CCCN1C(=O)[C@H](CCCNC(=N)N)NC(=O)[C@@H]1C[C@@H](O)CN1C(=O)[C@H](CC(C)C)NC(=O)[C@H](Cc1ccc(O)cc1)NC(=O)[C@@H]1CCCN1C(=O)[C@@H]1CCCN1C(=O)[C@H](CCCCN)NC(=O)[C@H](CC(=O)O)NC(=O)[C@@H](N)C(C)C)C(=O)N[C@@H](Cc1ccc(O)cc1)C(=O)N[C@@H](CC(N)=O)C(=O)N[C@@H](CCCNC(=N)N)C(N)=O [compound 22] (H-VDKPPYL[Hyp]RPRPPRRIYNR-NH2)	16 µg/mL (≈ 6.65 µM)	2 µg/mL (≈ 0.831 µM)	4 µg/mL (≈ 1.66 µM)	4 µg/mL (≈ 1.66 µM)	8 µg/mL (≈ 3.33 µM)	8 µg/mL (≈ 3.33 µM)	4 µg/mL (≈ 1.66 µM)				MIC S. typhimurium s5 (J. Weiser) [1]: 8 µg/mL (≈ 3.33 µM); MIC E. coli 045-849 SENTRY (E. coli 045-849 SENTRY; 045-849 SENTRY): 4 µg/mL (≈ 1.66 µM); MIC P. aeruginosa 10 J. Wilson [2]: 16 µg/mL (≈ 6.65 µM); MIC S. typhimurium ATCC 700408 [3]: 0.5 µg/mL (≈ 0.208 µM); MIC P. vulgaris ATCC 6896 (P. vulgaris ATCC 6896; ATCC 6896): 128 µg/mL (≈ 53.2 µM); MIC P. mirabilis ATCC 7002 (P. mirabilis ATCC 7002; ATCC 7002): 128 µg/mL (≈ 53.2 µM); MIC S. typhimurium ATCC 14028 [4]: 2 µg/mL (≈ 0.831 µM)
CC[C@H](C)[C@H](NC(=O)[C@H](CCCN)NC(=O)[C@H](CCCNC(=N)N)NC(=O)[C@@H]1C[C@@H](O)CN1C(=O)[C@@H]1CCCN1C(=O)[C@H](CCCNC(=N)N)NC(=O)[C@@H]1CCCN1C(=O)[C@H](CCCNC(=N)N)NC(=O)[C@@H]1CCCN1C(=O)[C@H](CC(C)C)NC(=O)[C@H](Cc1ccc(O)cc1)NC(=O)[C@@H]1CCCN1C(=O)[C@@H]1CCCN1C(=O)[C@H](CCCCN)NC(=O)[C@H](CC(=O)O)NC(=O)[C@@H](N)C(C)C)C(=O)N[C@@H](Cc1ccc(O)cc1)C(=O)N[C@@H](CC(N)=O)C(=O)N[C@@H](CCCN)C(N)=O [compound 107] (H-VDKPPYLPRPRP[Hyp]R[Orn]IYN[Orn]-NH2)						4 µg/mL (≈ 1.72 µM)	4 µg/mL (≈ 1.72 µM)		4 µg/mL (≈ 1.72 µM)	16 µg/mL (≈ 6.89 µM)	MIC P. aeruginosa DSM 3227 [10]: >32 µg/mL
VDKPPYLPRPRPPRRIYNNR [compound 14]	128 µg/mL	32 µg/mL	64 µg/mL	32 µg/mL	64 µg/mL	8 µg/mL	16 µg/mL	<0.5 h			MIC E. coli 045-849 SENTRY (E. coli 045-849 SENTRY; ¼ Muller-Hinton medium): 4 µg/mL
